From patent US20230106592A1, “METHOD FOR TREATING CANCER USING A COMBINATION OF DNA DAMAGING AGENTS AND ATR INHIBITORS” (Vertex Pharmaceuticals Incorporated, priority 2015, published 2023)
Entries after “also recorded” stand apart in the source; their conditions may differ.

Assays:
pS345 Chk1 = assay: pChk1 in paired tumor biopsies by immunohistochemistry; assay type: in vivo, human; settings: for Decreased Chk1 phosphorylation: paired tumor biopsy
From the text: In some embodiments, one or more biomarkers may be used to monitor or determine the efficacy of the treatment. In certain embodiments, the percentage of phosphorylated Chk1 (i.e., pChk1) in paired samples may be used as a biomarker; pChk1 is believed to correlate with the level of ATR activity. For instance, in some embodiments, the amount of pChk1 in the nuclei of cancer cells/mm^2 of a tumor biopsy may be used to determine the efficacy of monotherapy with an ATR inhibitor or combination therapy including an ATR inhibitor in a subject. In some such embodiments, a first tumor biopsy may be taken between about one to about three hours (e.g., two hours) before administration of the ATR inhibitor and a second tumor biopsy may be taken between about one to about three hours (e.g., two hours) after administration of the ATR inhibitor. The amount of pChk1 in the nuclei of cancer cells/mm^2 tumor in the first biopsy is set to be 100%, such that the amount of pChk1 in the nuclei of cancer cells/mm^2 tumor in the second biopsy is normalized by the amount in the first biopsy.
(§1) Pts with advanced solid tumors enrolled in 2 sequential parts.
As noted in Example 3, phosphorylated Chk1 was used as a biomarker in paired tumor biopsies of three subjects to determine the efficacy of the combination therapy. […] The amount of pChk1 in the nuclei of cancer cells/mm^2 tumor in the first biopsy was set to 100% and used to normalize the amount in the second biopsy.

[1] = system: PSN1 human pancreatic cancer xenografts; assay: PSN1 xenograft, dose schedule in combination with gemcitabine; assay type: in vivo, Nude mice
[2] = Phase I trial, monotherapy: adverse events and DLTs; assay type: in vivo, human; settings: for Drug-related G3-4 AEs / Dose-limiting toxicities (DLT): Part A; for Dose-limiting toxicities (DLT): once weekly IV monotherapy 60 to 480 mg/m^2
From the text: as §1
Eleven of the subjects were given a once weekly dosage of Compound A-2 as a monotherapy. Six of the subjects were given a twice weekly dosage of Compound A-2 as a monotherapy. […] DLTs were defined according to the National Cancer Institute (NCI) CTCAE (Version 4).
(§2) In part A, single pt cohorts received a compound of Formula A-2 once weekly in 21-day cycles with 3+3 dose escalation cohorts being implemented if grade 2 drug-related adverse events (AEs) occurred. […] If a DLT was reported, the cohort was expanded to include 3 additional pts with subsequent dose escalation being permitted if no further DLTs occurred. Paired pre- and post-treatment biopsies from selected pts in part B were assessed for pCHK1 levels by immunohistochemistry. Models based on preclinical and clinical data were used to simulate hematologic toxicities and pCHK1 inhibition for pts treated with a compound of Formula A-2 and CP.

advanced solid tumors = assay: Phase I trial, combination with carboplatin: RECIST response and PFS; assay type: in vivo, human
Experimental: as §1, §2

[3] = monotherapy 60 mg/m^2 Once Weekly (n = 1)
[4] = monotherapy 120 mg/m^2 Once Weekly (n = 2)
[5] = monotherapy 240 mg/m^2 Once Weekly (n = 1)
[6] = monotherapy 240 mg/m^2 Twice Weekly (n = 6)
[7] = monotherapy 480 mg/m^2 Once Weekly (n = 7)

## CNCc1ccc(-c2cc(-c3nc(-c4ccc(S(=O)(=O)C(C)C)cc4)cnc3N)on2)cc1 [Compound A-2]
pS345 Chk1; DL2 (120 mg/m^2 + CP AUC 5)
  Decreased Chk1 phosphorylation: 94%
pS345 Chk1; DL4 (90 mg/m^2 + CP AUC 5)
  Decreased Chk1 phosphorylation: 74%
pS345 Chk1; subject 1: carboplatin target AUC 5 mg/mL·min + 120 mg/m^2 Compound A-2, biopsy 2 hours before and after
  Decrease in pChk1 in nuclei of cancer cells/mm^2 tumor: 94%
pS345 Chk1; subjects 2 and 3: carboplatin target AUC 5 mg/mL·min + 90 mg/m^2 Compound A-2
  Decrease in pChk1 in nuclei of cancer cells/mm^2 tumor: 73%
[1]; Compound A-2 20 mg/kg every 6 days, dosed 12 to 24 hours after gemcitabine 15 mg/kg every 3 days
  Efficacy (tumor volume): most effective
[1]; Compound A-2 dosed before gemcitabine, or 48 hours after gemcitabine
  Benefit over gemcitabine treatment: limited benefit
[1]; Compound A-2 dosed within 12 hours or beyond 24 hours of gemcitabine administration
  Efficacy (tumor volume): reduced efficacy
[1]; addition of Compound A-2 to gemcitabine compared with gemcitabine only
  Body weight loss: did not lead to increased body weight loss
[2]; monotherapy
  Drug-related G3-4 AEs: no
[2]; monotherapy, listed as Formula A-2
  Drug-related G3-4 AEs: none
[2]
  Dose-limiting toxicities (DLT): no dose-limiting toxicities; also recorded: no dose limiting toxicities
[2]; listed as Formula A-2
  Dose-limiting toxicities (DLT): No DLTs
[2]; as monotherapy and in combination with CP, CIS, or gem
  Tolerability: well tolerated
[2]; [3]
  Treatment related adverse event: Any Event, All Grades: 1 (100) n (%)
  Treatment related adverse event: Any Event, Grade ≥ 3: 0 n (%)
  Treatment related adverse event: Catheter site related reaction, All Grades: 0 n (%)
  Treatment related adverse event: Catheter site related reaction, Grade ≥ 3: 0 n (%)
  Treatment related adverse event: Flushing, All Grades: 0 n (%)
  Treatment related adverse event: Flushing, Grade ≥ 3: 0 n (%)
  Treatment related adverse event: Headache, All Grades: 0 n (%)
  Treatment related adverse event: Headache, Grade ≥ 3: 0 n (%)
  Treatment related adverse event: Infusion related reaction, All Grades: 0 n (%)
  Treatment related adverse event: Infusion related reaction, Grade ≥ 3: 0 n (%)
  Treatment related adverse event: Nausea, All Grades: 0 n (%)
  Treatment related adverse event: Nausea, Grade ≥ 3: 0 n (%)
  Treatment related adverse event: Pruritus, All Grades: 0 n (%)
  Treatment related adverse event: Pruritus, Grade ≥ 3: 0 n (%)
[2]; [4]
  Treatment related adverse event: Any Event, All Grades: 4 (50.0) n (%)
  Treatment related adverse event: Any Event, Grade ≥ 3: 0 n (%)
  Treatment related adverse event: Catheter site related reaction, All Grades: 0 n (%)
  Treatment related adverse event: Catheter site related reaction, Grade ≥ 3: 0 n (%)
  Treatment related adverse event: Flushing, All Grades: 0 n (%)
  Treatment related adverse event: Flushing, Grade ≥ 3: 0 n (%)
  Treatment related adverse event: Headache, All Grades: 0 n (%)
  Treatment related adverse event: Headache, Grade ≥ 3: 0 n (%)
  Treatment related adverse event: Infusion related reaction, All Grades: 0 n (%)
  Treatment related adverse event: Infusion related reaction, Grade ≥ 3: 0 n (%)
  Treatment related adverse event: Nausea, All Grades: 0 n (%)
  Treatment related adverse event: Nausea, Grade ≥ 3: 0 n (%)
  Treatment related adverse event: Pruritus, All Grades: 0 n (%)
  Treatment related adverse event: Pruritus, Grade ≥ 3: 0 n (%)
[2]; [5]
  Treatment related adverse event: Any Event, All Grades: 0 n (%)
  Treatment related adverse event: Any Event, Grade ≥ 3: 0 n (%)
  Treatment related adverse event: Catheter site related reaction, All Grades: 0 n (%)
  Treatment related adverse event: Catheter site related reaction, Grade ≥ 3: 0 n (%)
  Treatment related adverse event: Flushing, All Grades: 0 n (%)
  Treatment related adverse event: Flushing, Grade ≥ 3: 0 n (%)
  Treatment related adverse event: Headache, All Grades: 0 n (%)
  Treatment related adverse event: Headache, Grade ≥ 3: 0 n (%)
  Treatment related adverse event: Infusion related reaction, All Grades: 0 n (%)
  Treatment related adverse event: Infusion related reaction, Grade ≥ 3: 0 n (%)
  Treatment related adverse event: Nausea, All Grades: 0 n (%)
  Treatment related adverse event: Nausea, Grade ≥ 3: 0 n (%)
  Treatment related adverse event: Pruritus, All Grades: 0 n (%)
  Treatment related adverse event: Pruritus, Grade ≥ 3: 0 n (%)
[2]; [6]
  Treatment related adverse event: Any Event, All Grades: 6 (100) n (%)
  Treatment related adverse event: Any Event, Grade ≥ 3: 1 (16.7) n (%)
  Treatment related adverse event: Catheter site related reaction, All Grades: 2 (33.3) n (%)
  Treatment related adverse event: Catheter site related reaction, Grade ≥ 3: 0 n (%)
  Treatment related adverse event: Flushing, All Grades: 1 (16.7) n (%)
  Treatment related adverse event: Flushing, Grade ≥ 3: 0 n (%)
  Treatment related adverse event: Headache, All Grades: 0 n (%)
  Treatment related adverse event: Headache, Grade ≥ 3: 0 n (%)
  Treatment related adverse event: Infusion related reaction, All Grades: 4 (16.7) n (%)
  Treatment related adverse event: Infusion related reaction, Grade ≥ 3: 0 n (%)
  Treatment related adverse event: Nausea, All Grades: 0 n (%)
  Treatment related adverse event: Nausea, Grade ≥ 3: 0 n (%)
  Treatment related adverse event: Pruritus, All Grades: 0 n (%)
  Treatment related adverse event: Pruritus, Grade ≥ 3: 0 n (%)
[2]; [7]
  Treatment related adverse event: Any Event, All Grades: 7 (100) n (%)
  Treatment related adverse event: Any Event, Grade ≥ 3: 0 n (%)
  Treatment related adverse event: Catheter site related reaction, All Grades: 0 n (%)
  Treatment related adverse event: Catheter site related reaction, Grade ≥ 3: 0 n (%)
  Treatment related adverse event: Flushing, All Grades: 3 (42.9) n (%)
  Treatment related adverse event: Flushing, Grade ≥ 3: 0 n (%)
  Treatment related adverse event: Headache, All Grades: 2 (28.6) n (%)
  Treatment related adverse event: Headache, Grade ≥ 3: 0 n (%)
  Treatment related adverse event: Infusion related reaction, All Grades: 1 (14.3) n (%)
  Treatment related adverse event: Infusion related reaction, Grade ≥ 3: 0 n (%)
  Treatment related adverse event: Nausea, All Grades: 2 (28.6) n (%)
  Treatment related adverse event: Nausea, Grade ≥ 3: 0 n (%)
  Treatment related adverse event: Pruritus, All Grades: 2 (28.6) n (%)
  Treatment related adverse event: Pruritus, Grade ≥ 3: 0 n (%)
[2]; monotherapy, Total (N = 17)
  Treatment related adverse event: Any Event, All Grades: 15 (88.2) n (%)
  Treatment related adverse event: Any Event, Grade ≥ 3: 1 (5.9) n (%)
  Treatment related adverse event: Catheter site related reaction, All Grades: 2 (11.8) n (%)
  Treatment related adverse event: Catheter site related reaction, Grade ≥ 3: 0 n (%)
  Treatment related adverse event: Flushing, All Grades: 4 (23.5) n (%)
  Treatment related adverse event: Flushing, Grade ≥ 3: 0 n (%)
  Treatment related adverse event: Headache, All Grades: 2 (11.8) n (%)
  Treatment related adverse event: Headache, Grade ≥ 3: 0 n (%)
  Treatment related adverse event: Infusion related reaction, All Grades: 2 (11.8) n (%)
  Treatment related adverse event: Infusion related reaction, Grade ≥ 3: 0 n (%)
  Treatment related adverse event: Nausea, All Grades: 2 (11.8) n (%)
  Treatment related adverse event: Nausea, Grade ≥ 3: 0 n (%)
  Treatment related adverse event: Pruritus, All Grades: 2 (11.8) n (%)
  Treatment related adverse event: Pruritus, Grade ≥ 3: 0 n (%)
[2]; once weekly monotherapy
  Dose at which adverse events began: 480 mg/m^2
Advanced solid tumors; Subject 1, Ovarian, Compound A-2 120 mg/m^2 + carboplatin AUC 5 mg/mL·min
  PFS (progression-free survival): 175 days
Advanced solid tumors; Subject 2, Ovarian, Compound A-2 90 mg/m^2 + carboplatin AUC 5 mg/mL·min
  PFS (progression-free survival): 176 days
Advanced solid tumors; Subject 3, Breast, Compound A-2 90 mg/m^2 + carboplatin AUC 5 mg/mL·min
  PFS (progression-free survival): 67 days
Advanced solid tumors; part B with CP (n=1)
  Best response: partial response
Advanced solid tumors; platinum and antimetabolite refractory high grade serous ovarian cancer subject, carboplatin AUC 5 day 1, Compound A-2 90 mg/m^2 days 2 and 9
  RECIST response: partial response
Advanced solid tumors; refractory ovarian cancer subject, carboplatin AUC 5 + Compound A-2 90 mg/m^2, ongoing
  Duration of RECIST partial response: more than 6 months
